Assay [1] concerns 30-kDa active form of cathepsin B (CatB-30). Put plainly: Hippocampal slice cultures treated for two days, immunoblot for active cathepsin B. It counts as cell-based, rodent. The conditions noted are these: for increase in CatB-30 by flavonol alone: 5 μM flavonol alone for 2 days; for increase in cathepsin B (CatB-30): vs non-treated slices, statistically significant; for effect of the cathepsin B positive modulator PADK in combination with flavonol (summary in words) / levels of cathepsin B (summary in words): summary in the discussion. The protocol:
FIG. 1. Cathepsin B positive modulation by flavonols—members of the flavonoid class of polyphenolic compounds. Flavonols of quercetin (Q), fisetin (F), and myricetin (M) were applied daily to rodent hippocampal slice cultures. After two (2) days, non-treated (NT) and treated slices were harvested, homogenates were prepared, and equal protein aliquots were assessed by immunoblot to label the 30-kDa active form of cathepsin B (CatB-30). […] FIG. 2. Cathepsin B positive modulation by Z-Phe-Pro-OH. The compound Z-Phe-Pro-OH was applied to rodent hippocampal slice cultures for two (2) days. […] FIG. 3. Quercetin enhances the effect of the cathepsin B positive modulator Z-Phe-Ala-diazomethylketone (PADK). Quercetin (Q) at 5 μM was added to the daily PADK treatments of rodent hippocampal slice cultures. After two (2) days, non-treated (NT) and treated slices were harvested, homogenates were prepared, and equal protein aliquots were assessed by immunoblot to label the active form of cathepsin B (CatB-30). Paired, two-tailed t-test among distinct immunoblots found a statistically significant enhancement of the PADK effect by quercetin (p=0.0167; pairing was effective: p=0.0014). An enhancement of 60-70% occurred, whereas 5 μM quercetin alone for 2 days caused only a 21% increase in CatB-30. FIG. 4. Fisetin and myricetin enhance the cathepsin B positive modulation produced by 10 μM Z-Phe-Ala-diazomethylketone (PADK). Fisetin at 5 μM (top graph) or myricetin at 5 μM (bottom graph) were added to the two daily PADK treatments of rodent hippocampal slice cultures. The non-treated (NT) and treated slices were harvested, homogenates were prepared, and equal protein aliquots were assessed by immunoblot to label the active form of cathepsin B (CatB-30). […] An enhancement of 95-140% was produced by fisetin, whereas 5 μM fisetin alone for two (2) days caused only a 40% increase in CatB-30. FIG. 5. Dose-dependent enhancement of the PADK effect on CatB by flavonols. Quercetin (Q), fisetin (F), and myricetin (M) at 5-10 μM were applied daily to rodent hippocampal slice cultures that were also treated with 3 μM PADK (top graph) or 10 μM PADK (bottom graph). After two (2) days, non-treated (NT) and treated slices were harvested, homogenates were prepared, and equal protein aliquots were assessed by immunoblot to label the 30-kDa active form of cathepsin B (CatB-30). […] The 10 μM PADK slices indicate that each flavonol at the lower concentration has an enhancing effect, but the effect is eliminated or reduced when the flavonol concentration is doubled. As described in FIG. 1, flavonols such as quercetin (Q), fisetin (F), and myricetin (M) were applied daily to rodent hippocampal slice cultures. After two (2) days, non-treated (NT) and treated slices were harvested, homogenates were prepared, and equal protein aliquots were assessed by immunoblot to label the 30-kDa active form of cathepsin B (CatB-30). As described in FIG. 2, the compound of Z-Phe-Pro-OH was applied to rodent hippocampal slice cultures for two (2) days. As described in FIG. 3, the flavonol of quercetin (Q) was added at 5 μM to the daily PADK treatments of rodent hippocampal slice cultures. After two (2) days, non-treated (NT) and treated slices were harvested, homogenates were prepared, and equal protein aliquots were assessed by immunoblot to label the active form of cathepsin B (CatB-30). As described in FIG. 4, the flavonols of fisetin at 5 μM (top graph of FIG. 4) or myricetin at 5 μM (bottom graph of FIG. 4) were added to the two daily PADK treatments of rodent hippocampal slice cultures. The non-treated (NT) and treated slices were harvested, homogenates were prepared, and equal protein aliquots were assessed by immunoblot to label the active form of cathepsin B (CatB-30). As described in FIG. 5, the flavonols of quercetin (Q), fisetin (F), and myricetin (M) at 5-10 μM were applied daily to rodent hippocampal slice cultures that were also treated with 3 μM PADK (top graph) or 10 μM PADK (bottom graph). […]
Background: Immunoblotting shows a protein as a band on a membrane.

For the next assay, the system named is CatB-30. Put plainly: Oral dosing in peanut butter pellets to middle-aged mice, dissected hippocampi: CatB-30. The conditions noted are these: oral twice daily for 11 days, hippocampus, vs control compound. It counts as in vivo. The protocol: (§1) Compounds in peanut butter pellets were administered to middle-aged mice orally twice daily for 11 days, then dissected hippocampi were compared to control mice that received the same oral dosing with control compound.

The subject of another assay is synaptic marker GluR1. As to the kind of experiment: Oral dosing in peanut butter pellets to middle-aged mice, dissected hippocampi: synaptic marker GluR1. The conditions noted are these: oral twice daily for 11 days, hippocampus, vs control compound. It counts as in vivo. The protocol:
as §1

Where [2] appears, read: flavonol at 5 and 10 μM daily with 3 μM PADK, two days.

Where a SMILES comes first, the peptide text is derived from it. The star is where a group is joined. Cbz = O=C(OCc1ccccc1)*

Consider `O=c1c(O)c(-c2ccc(O)c(O)c2)oc2cc(O)ccc12` [fisetin], for which the “enhancement of the PADK effect on CatB-30” value in assay [1] (5 μM fisetin added to two daily treatments with 10 μM PADK) is 95-140%. Further, in assay [1], the “increase in CatB-30 by flavonol alone” value came out at 40%, the “effect of the cathepsin B positive modulator PADK in combination with flavonol (summary in words)” value (“effect … (summary in words)” below) is “enhance the effect” and the “levels of cathepsin B (summary in words)” value is given as “increase levels of cathepsin B”. Further, the “increase in cathepsin B (CatB-30)” value in assay [1] (5-30 μM fisetin applied daily, two days) stood at 1.65 fold. In addition, the “enhancement of the PADK effect on CatB-30 (in words)” value (from here on “enhancement … (in words)”) in assay [1] (setting [2]) was “only the higher 10 μM concentration of fisetin enhanced the effect”.
On to `O=C(N[C@@H](Cc1ccccc1)C(=O)N1CCC[C@H]1C(=O)O)OCc1ccccc1` [Z-Phe-Pro-OH, N-carbobenzoxy-L-phenylalanyl-L-proline] (Cbz-Phe-Pro-OH), for which, in assay [1], the “levels of cathepsin B (summary in words)” value is listed as “increase levels of cathepsin B”.
On to `O=c1c(O)c(-c2ccc(O)c(O)c2)oc2cc(O)cc(O)c12` [quercetin], for which, in assay [1], the “increase in CatB-30 by flavonol alone” value was 21%, the “effect … (summary in words)” value is reported as “enhance the effect” and the “levels of cathepsin B (summary in words)” value is on record as “increase levels of cathepsin B”. The “enhancement of the PADK effect on CatB-30” value in assay [1] (5 μM quercetin added to the daily PADK treatments, two days) was 60-70%. In addition, in assay [1] (5-20 μM quercetin applied daily, two days), the “increase in cathepsin B (CatB-30)” value is reported as 1.96 fold. Moreover, the “enhancement … (in words)” value in assay [1] (setting [2]) is “both 5 and 10 μM quercetin enhanced the PADK effect”. Further, in the assay with CatB-30 (female middle-aged mice), the “CatB-30 in female mice” value is listed as “increased CatB-30 in female mice”. Moreover, the “CatB-30 in male mice” value in the assay with CatB-30 (male middle-aged mice) is on record as “increased CatB-30 in male mice”. In addition, the “synaptic marker GluR1” value with synaptic marker GluR1 was “enhanced synaptic marker GluR1”.
`O=c1c(O)c(-c2cc(O)c(O)c(O)c2)oc2cc(O)cc(O)c12` [myricetin]: the “enhancement … (in words)” value in assay [1] (5 μM myricetin added to two daily treatments with 10 μM PADK, one-tailed p=0.033) is “smaller enhancement”. The “enhancement … (in words)” value in assay [1] (setting [2]) is “no enhancing effect at either concentration”. Besides, in assay [1], the “effect … (summary in words)” value was “enhance the effect” and the “levels of cathepsin B (summary in words)” value was “increase levels of cathepsin B”.

For the origin of these results see patent US10702571B2, “Materials for cathepsin B enhancement and methods of use” (The University of North Carolina at Pembroke, priority 2015, dated 2020).
